Results from ChEMBL document CHEMBL5528018, “Whole cell hydride Meisenheimer complex biotransformation guided optimization of antimycobacterial benzothiazinones” (Eur J Med Chem, 2024).
In brackets after ≈: the same amount, converted by molar mass.

Assays:
[1] = Metabolic stability in human liver microsomes assessed as half life at 20 uM measured upto 90 mins in presence of NADP regenerating system by high-resolution mass spectrometry; assay type: ADME, Microsome
[2] = Metabolic stability in human liver microsomes assessed as hepatic extraction ratio at 20 uM measured upto 90 mins in presence of NADP regenerating system by high-resolution mass spectrometry; assay type: ADME, Microsome; conditions: read-out: ERH
[3] = Selectivity index, ratio of CC50 for cytotoxicity against human HeLa cells to MIC for antitubercular activity against Mycobacterium tuberculosis H37Rv; assay type: toxicity, cell-based; conditions: read-out: Selectivity Index
[4] = Cytotoxicity against human HeLa cells assessed as cytolytic effect incubated for 72 hrs by methylene blue staining based colorimetric analysis; assay type: toxicity, cell-based
[5] = Metabolic stability in human liver microsomes assessed as intrinsic clearance at 20 uM measured upto 90 mins in presence of NADP regenerating system by high-resolution mass spectrometry; assay type: ADME, Microsome; conditions: read-out: CLH
[6] = Metabolic stability in human liver assessed as intrinsic clearance at 20 uM measured upto 90 mins in presence of NADP regenerating system by high-resolution mass spectrometry; assay type: ADME, tissue-based; conditions: read-out: CLH
[7] = tested on: Mycobacterium tuberculosis; test: Antitubercular activity against Mycobacterium tuberculosis H37Rv by resazurin dye based microtiter plate assay; assay type: functional
[8] = Cmax in mouse RAW264.7 cells at 77 uM incubated for 8 hrs by UHPLC-HRMS analysis; assay type: ADME, cell-based
[9] = Tmax in mouse RAW264.7 cells at 77 uM incubated for 8 hrs by UHPLC-HRMS analysis; assay type: ADME, cell-based
[10] = Half life in mouse RAW264.7 cells at 77 uM incubated for 8 hrs by UHPLC-HRMS analysis; assay type: ADME, cell-based
[11] = Half life in BALB/cAnNCrl mouse at 250 mg/kg, po measured upto 24 hrs by UHPLC-HRMS analysis; assay type: ADME, organism-based; conditions: in vivo
[12] = Apparent volume of distribution during terminal phase in BALB/cAnNCrl mouse at 250 mg/kg, po measured upto 24 hrs by UHPLC-HRMS analysis; assay type: ADME, organism-based; conditions: in vivo, read-out: Vz/F
[13] = Apparent oral clearance in BALB/cAnNCrl mouse at 250 mg/kg measured upto 24 hrs by UHPLC-HRMS analysis; assay type: ADME, organism-based; conditions: in vivo
[14] = tested on: Mycobacterium tuberculosis; test: Antitubercular activity against Mycobacterium tuberculosis H37Rv infected in BALB/c mouse assessed as reduction of colony forming unit in spleen administered once daily for 6 weeks by agar dilution method; assay type: functional, organism-based; conditions: dose 25-250 mg/kg/day, route po
[15] = AUC (0 to infinity) in BALB/cAnNCrl mouse at 250 mg/kg, po measured upto 24 hrs by UHPLC-HRMS analysis; assay type: ADME, organism-based; conditions: in vivo
[16] = Stability in mouse RAW264.7 cells assessed as parent compound remaining at 77 uM after 8 hrs by UHPLC-HRMS analysis; assay type: ADME, cell-based; conditions: read-out: Stability
[17] = tested on: Mycobacterium tuberculosis; test: Antitubercular activity against Mycobacterium tuberculosis H37Rv infected in BALB/c mouse assessed as reduction of colony forming unit in lung administered once daily for 6 weeks by agar dilution method; assay type: functional, organism-based; conditions: dose 25-250 mg/kg/day, route po
[18] = Cmax in BALB/cAnNCrl mouse at 250 mg/kg, po measured upto 24 hrs by UHPLC-HRMS analysis; assay type: ADME, organism-based; conditions: in vivo
[19] = Tmax in BALB/cAnNCrl mouse at 250 mg/kg, po measured upto 24 hrs by UHPLC-HRMS analysis; assay type: ADME, organism-based; conditions: in vivo
[20] = Drug metabolism in BALB/c cAnNCrl mouse assessed as HMC metabolite formation at 250 mg/kg, po measured upto 24 hrs by UHPLC-HRMS analysis; assay type: ADME, organism-based; conditions: in vivo
[21] = Toxicity in BALB/c mouse infected with Mycobacterium tuberculosis H37Rv assessed as drug tolerance at 25 to 250 mg/kg/day, po qd administered for 6 weeks; assay type: organism-based; conditions: in vivo, 1008 h, dose 25-250 mg/kg/day
[22] = Drug metabolism in CD1 mouse brain assessed as hydride meisenheimer complex formation by UHPLC-HRMS analysis; assay type: ADME, tissue-based
[23] = Drug metabolism in CD1 mouse liver assessed as hydride meisenheimer complex formation by UHPLC-HRMS analysis; assay type: ADME, tissue-based
[24] = Drug metabolism in CD1 mouse heart assessed as hydride meisenheimer complex formation by UHPLC-HRMS analysis; assay type: ADME, tissue-based
[25] = Drug metabolism in cattle assessed as hydride meisenheimer complex formation by UHPLC-HRMS analysis; assay type: ADME, Bos taurus
[26] = Drug metabolism in CD1 mouse kidney assessed as hydride meisenheimer complex formation by UHPLC-HRMS analysis; assay type: ADME, tissue-based
[27] = Drug metabolism in goat assessed as hydride meisenheimer complex formation by UHPLC-HRMS analysis; assay type: ADME, Capra hircus
[28] = Drug metabolism in rat assessed as hydride meisenheimer complex formation by UHPLC-HRMS analysis; assay type: ADME
[29] = Drug metabolism in CD1 mouse blood assessed as hydride meisenheimer complex formation by UHPLC-HRMS analysis; assay type: ADME, tissue-based
[30] = Drug metabolism in CD1 mouse muscle assessed as hydride meisenheimer complex formation by UHPLC-HRMS analysis; assay type: ADME, tissue-based, Muscle tissue
[31] = Drug metabolism in CD1 mouse lung assessed as hydride meisenheimer complex formation by UHPLC-HRMS analysis; assay type: ADME, tissue-based
[32] = Drug metabolism in CD1 mouse spleen assessed as hydride meisenheimer complex formation by UHPLC-HRMS analysis; assay type: ADME, tissue-based
[33] = Drug metabolism in sheep assessed as hydride meisenheimer complex formation by UHPLC-HRMS analysis; assay type: ADME, Ovis aries

Row | Compound | half-life at 20 µM [1] | hepatic extraction ratio at 1.5 h, 20 µM [2] | selectivity ratio [3] | CC50 at 72 h [4] | microsomal CLint at 20 µM [5] | CLint scaled at 20 µM [6] | MIC [7] | other results
1 | Cc1c(C(F)(F)F)cc([N+](=O)[O-])c2sc(N3CCN(CC4CCCCC4)CC3)nc(=O)c12 | 0.692 h | 0.661 | 50000 | 53 µM | 33.7 µL/min/mg | 39 mL/min/kg | 0.056 µM (≈ 0.0263 µg/mL) | 
2 | Cc1c(C(F)(F)F)c(C)c2c(=O)nc(N3CCC4(CC3)OC[C@H](C)O4)sc2c1[N+](=O)[O-] |  |  | 21 | 93 µM |  |  | 4.35 µM (≈ 2 µg/mL) | 
3 | O=c1nc(N2CCN(S(=O)(=O)c3ccc(OC(F)(F)F)cc3)CC2)sc2c([N+](=O)[O-])cc(C(F)(F)F)cc12 |  |  | 397 | 43 µM |  |  | 0.108 µM (≈ 0.0631 µg/mL) | 
4 | C#Cc1c(C(F)(F)F)cc([N+](=O)[O-])c2sc(N3CCC4(CC3)OC[C@H](C)O4)nc(=O)c12 |  |  | 1 | 9 µM |  |  | > 8.78 µM | 
5 | Cc1c(C(F)(F)F)cc2c(=O)nc(N3CCN(S(=O)(=O)c4ccc(OC(F)(F)F)cc4)CC3)sc2c1[N+](=O)[O-] |  |  | 13 | > 84 µM |  |  | > 6.68 µM | 
6 | C[C@H]1COC2(CCN(c3nc(=O)c4cc(C(F)(F)F)cc(N)c4s3)CC2)O1 |  |  |  |  |  |  |  | Cmax at 77 µM [8]: 2000 ng/mL; Tmax at 77 µM [9]: 8 h; half-life at 77 µM [10]: 13 h
7 | O=c1nc(N2CCC(Oc3ccc(OC(F)(F)F)cc3)CC2)sc2c([N+](=O)[O-])cc(C(F)(F)F)cc12 |  |  | 16700 | > 93 µM |  |  | 0.0056 µM (≈ 0.003 µg/mL) | 
8 | Cc1c(C(F)(F)F)cc([N+](=O)[O-])c2sc(N3CCN(S(=O)(=O)c4ccc(OC(F)(F)F)cc4)CC3)nc(=O)c12 |  |  | 13 | > 84 µM |  |  | > 6.68 µM | 
9 | Cc1c(C(F)(F)F)cc([N+](=O)[O-])c2sc(N3CCC4(CC3)OC[C@H](C)O4)nc(=O)c12 | 1.7 h | 0.443 | 8330 | > 110 µM | 13.7 µL/min/mg | 15.9 mL/min/kg | 0.053 µM (≈ 0.0236 µg/mL) | Cmax at 77 µM [8]: 504 ng/mL; half-life [11]: 4.6 h; Tmax at 77 µM [9]: 0.17 h; Vd/F [12]: 108 L/kg; CL/F [13]: 267 mL/min/kg; Activity [14]: Dose-Dependent Effect; AUC [15]: 15600 ng·h/mL; remaining at 8 h, 77 µM [16]: 76.6%; half-life at 77 µM [10]: 20.2 h; Activity [17]: Dose-Dependent Effect; Cmax [18]: 2410 ng/mL; Tmax [19]: 0.5 h; Drug metabolism [20]: Metabolite_Notdetected; Activity [21]: Non-Toxic
10 | C[C@H]1COC2(CCN(c3nc(=O)c4cc(C(F)(F)F)cc([N+](=O)[O-])c4s3)CC2)O1 [BTZ-043] |  |  | 33300 | > 120 µM |  |  | 0.00348 µM (≈ 0.0015 µg/mL) | Drug metabolism [22]: Metabolite_Detected; Drug metabolism [23]: Metabolite_Detected; Drug metabolism [24]: Metabolite_Detected; Drug metabolism [25]: Metabolite_Detected; Drug metabolism [26]: Metabolite_Detected; Cmax at 77 µM [8]: 3950 ng/mL; Drug metabolism [27]: Metabolite_Detected; Tmax at 77 µM [9]: 0 h; Drug metabolism [28]: Metabolite_Detected; Drug metabolism [29]: Metabolite_Detected; Drug metabolism [30]: Metabolite_Detected; Drug metabolism [31]: Metabolite_Detected; Drug metabolism [32]: Metabolite_Detected; half-life at 77 µM [10]: 2.3 h; Drug metabolism [33]: Metabolite_Detected
11 | Cc1c(C(F)(F)F)cc2c(=O)nc(N3CCC4(CC3)OC[C@H](C)O4)sc2c1[N+](=O)[O-] | 2.75 h | 0.329 | 104 | 87 µM | 8.5 µL/min/mg | 9.8 mL/min/kg | 0.842 µM (≈ 0.375 µg/mL) | 
12 | O=c1nc(N2CCN(CC3CCCCC3)CC2)sc2c([N+](=O)[O-])cc(C(F)(F)F)cc12 [MACOZINONE] |  |  | 100000 | > 110 µM |  |  | 0.0011 µM (≈ 0.000502 µg/mL) | 
13 | Cc1c(C(F)(F)F)cc([N+](=O)[O-])c2sc(N3CCC(Oc4ccc(OC(F)(F)F)cc4)CC3)nc(=O)c12 | 0.572 h | 0.702 | 100 | > 91 µM | 40.8 µL/min/mg | 47.1 mL/min/kg | 0.91 µM (≈ 0.5 µg/mL) | 
14 | Cc1c(C(F)(F)F)cc2c(=O)nc(N3CCC(Oc4ccc(OC(F)(F)F)cc4)CC3)sc2c1[N+](=O)[O-] | 1.13 h | 0.543 | 25 | > 91 µM | 20.6 µL/min/mg | 23.8 mL/min/kg | 3.64 µM (≈ 2 µg/mL) | 
15 | Cc1c(C(F)(F)F)cc2c(=O)nc(N3CCN(CC4CCCCC4)CC3)sc2c1[N+](=O)[O-] |  |  | 80 | 64 µM |  |  | 0.797 µM (≈ 0.375 µg/mL) | 
